Laboratory results reported in patent US12622917B2, “High-activity Wnt pathway inhibitor compound” (ADLAI NORTYE BIOPHARMA CO., LTD., priority 2020, dated 2026).

Assays:
Format in all cases: cell-based
[1] = tested on: Colo205-LUC-TCF/LEF M1 reporter cell line (Wnt pathway); experiment: Colo205-LUC-TCF/LEF M1 reporter gene (luciferase) inhibition; conditions: 4 hours incubation, luciferase readout
Text: Colo205 cell line (Cell Bank of Chinese Academy of Sciences, Cat #TCHu102) was purchased from the Cell Bank of Chinese Academy of Sciences. After expansion and subculture, in the exponential growth phase of the cells, transfection with lipo3000 liposome transfection with TCF/LEF transcription factors Driven luciferase reporter plasmid (Promega). […] The plasmid carries a resistance gene for resistance screening. Transfection was carried out in 10 cm culture dishes using conventional complete medium without resistance. After 2 days, the medium with resistance was replaced, and the culture was continued. After that, the resistant medium was replaced every 2 days, and the suspended cells were discarded. The original medium was centrifuged to remove cells and debris and retained as an adaptive medium. When the cells covered the culture dish, the cells were digested, counted, and passaged in a 96-well plate, so that the average number of cells contained in each well was 1.5/well, and the adaptive medium was used for passage. The rest of the cells were frozen. After subculture, culture for 4 hours to allow the cells to adhere to the wall, and then observe the number of cells in each well under a microscope. Wells with only 1 cell per well were labeled as monoclonal wells. Afterwards, normal culture was performed, and the culture medium was replaced every 2 days, and observed. There are holes where the monoclonal cells continue to grow in the early stage, and they are labeled twice, and can be replaced with normal resistant medium. When a monoclonal well was overgrown with a 96-well plate, it is digested and passaged to a 24-well culture plate. After the 24-well plate is overgrown, it is passaged to a 96-well plate and a 6-well plate. The cells in a 96-well plate are at least 6 wells, of which 3 wells were added with known Wnt inhibitors, and the other 3 wells were not treated. After 24 hours, the cells in the 96-well plate were added with a fluorescence detection reagent to detect the fluorescence intensity. Cell lines with fluorescent expression when not treated and decreased fluorescent light after inhibition were selected and further cultured. The Colo205-LUC-TCF/LEF-M1 cell line is one of the cell lines screened above. Its growth curve, cell shape, and cell growth state are similar to those of the original Colo205 cells, and the ratio of the fluorescent signals of the inhibitor-treated and untreated cells is the largest among all cell lines, and the ratio can reach 4-5 times when inhibited at 4 hours, which was completely suitable for the screening of Wnt inhibitors in the later stage.
The Colo205-LUC-TCF/LEF M1 cell line is a reporter tool cell stably transfected with the pGL4.49-LUC2-TCF/LEF vector. The β-catenin Wnt pathway is continuously activated. After adding the inhibitor, the Wnt pathway is inhibited. The expression of firefly luciferase regulated by the[…] cis-element decreased, and after adding the detection substrate, the detected light signal decreased accordingly, so as to detect the inhibitory effect of the compound.
To a 96-well cell culture plate, add 100 uL of the compound with a maximum concentration of 20 uM to each well, and make a 3-fold serial dilution of the compound concentration. Then 10,000 colo205 cells stably transfected with the reporter gene and 100 uL medium were inoculated into each well, and corresponding positive and negative control wells were made at the same time. Put the cells in a 5% CO2 incubator and incubate at 37° C. for 4 hours. After 4 hours, remove the culture medium, add 100 uL of reagent (Promega) containing the corresponding firefly luciferase substrate to each well, and measure the activity of luciferase reporter gene. Luminescence intensity was read with SpectraMax in full wavelength mode. […]

[2] = tested on: DU4475; experiment: Proliferation inhibition, Wnt mutant cell line DU4475; conditions: Homo sapiens, DU-4475; DU4475, Wnt pathway-dependent, 96 hours; read-out: Antiproliferative IC50 DU4475
Text: (§1) The cell lines used in the experiment are Colo205 and DU4475 cell lines whose Wnt pathway is continuously activated and whose proliferation is Wnt pathway-dependent; while the BELA and RKO cell lines, whose Wnt pathway is not activated under normal circumstances and the proliferation is independent of Wnt pathway, as control cell lines. It is Judged that the inhibitory effect of the compound of the present invention on Wnt-dependent proliferation is not caused by other non-specific toxicity.
(§2) Treat the Colo205, Du4475, HELA and RKO cell lines cultured in their respective mediums in the logarithmic growth phase, collect the cells and prepare a uniform cell suspension of known concentration, and then add it to the 96-well cell culture plate Cell suspension, so that each well contains 1000 cells. Put it into a 5% CO2 incubator and incubate at 37° C. for 20-24 h. On the second day, the fully dissolved, 3-fold serially diluted compound was added to each cell culture well, so that the final maximum concentration in the cell culture well was 20 uM, and the culture was continued for 96 hours. In this test, Promega's cell viability detection test is used for detection. The more the cells proliferate, the stronger the final signal intensity will be. The detection instrument is SpectraMax, full wavelength mode. The wells only added with DMSO were used as positive control wells, and the wells that were not inoculated with cells were used as negative control wells. […] The IC50 value of cell proliferation inhibition was used to evaluate the inhibitory effect of the compound on the Wnt pathway and the toxic effect on normal cells (Table 2).

[3] = tested on: RKO; experiment: Proliferation inhibition, non-Wnt mutant control cell line RKO; conditions: Homo sapiens, Wnt-independent control cell line, 96 hours, read-out: Antiproliferative IC50 RKO
Text: as §1, §2

[4] = tested on: Colo205; experiment: Proliferation inhibition, Wnt mutant cell line Colo205; conditions: Homo sapiens, COLO 205; Colo205, Wnt pathway-dependent, 96 hours; read-out: Antiproliferative IC50 Colo205
Text: as §1, §2

[5] = tested on: HepG2; experiment: Proliferation inhibition, HepG2 cell line; conditions: Homo sapiens; HepG2 cells, 96 hours culture, cell viability detection; read-out: Antiproliferative IC50 HepG2
Text: The cell lines used in the test are NCI-H929 and HepG2 cell lines whose Wnt pathway is continuously activated and whose proliferation is Wnt pathway-dependent; the inhibitory effect of the compound of the present invention on Wnt-dependent proliferation is judged.
Treat the NCI-H929 and HepG2 cell lines cultured in their respective mediums in the logarithmic growth phase, collect the cells and prepare a uniform cell suspension of known concentration, and then add the cell suspension to the 96-well cell culture plate solution so that each well contains 4000 cells. Put it into a […] incubator and incubate at 37° C. for 20-24 h. On the second day, the fully dissolved, 3-fold serially diluted compound was added to each cell culture well, so that the final maximum concentration in the cell culture well was 20 uM, and the culture was continued for 96 hours. In this test, Promega's cell viability detection test is used for detection. The more the cells proliferate, the stronger the final signal intensity will be. The detection instrument is SpectraMax, full wavelength mode. The wells only added with DMSO were used as positive control wells, and the wells that were not inoculated with cells were used as negative control wells. […] The IC50 value of cell proliferation inhibition was used to evaluate the inhibitory effect of the compound on the Wnt pathway and the toxic effect on normal cells (Table 3).

Compound	IC50 [1]	IC50 [4]	IC50 [5]	IC50 [2]	IC50 [3]
COC[C@H]1Cn2ccc3nc(NCc4ccc(OC5CCC(F)(F)CC5)nc4)nc(c32)N1C [85 (W132)]	7 nM	8.3 nM	–	11.6 nM	5500 nM
CN1c2nc(NCc3ccc(Oc4ccc(C(F)(F)F)nc4)nc3)nc3c2N(CCC3)C(=O)[C@@H]1C(C)(C)O [122 (W272), (S)-5-(2-hydroxypropan-2-yl)-4-methyl-2-(((6-((6-(trifluoromethyl)pyridin-3-yl)oxo)pyridine-3-yl)methyl)amino)-4,5,9,10-tetrahydro-6H,8H-pyrido[3,2,1-de]pteridin-6-one]	–	87 nM	–	58 nM	> 10000 nM
CN1c2nc(NCc3ccc(Oc4cnc(C(F)(F)F)nc4)nc3)nc3c2N(CCC3)C(=O)[C@@H]1C(C)(C)O [145 (W331)]	–	43 nM	–	53 nM	> 10000 nM
COC[C@H]1C(=O)N2CCCc3nc(NCc4ccc(Oc5cnc(C(F)(F)F)nc5)nc4)nc(c32)N1C [154 (W258)]	30 nM	37 nM	–	30 nM	> 10000 nM
CO[C@H](C)[C@H]1C(=O)N2CCCc3nc(NCc4ccc(Oc5cnc(C(F)(F)F)nc5)nc4)nc(c32)N1C [156 (W264)]	39 nM	27 nM	–	13 nM	> 10000 nM
O=C1[C@@H]2CCCN2c2nc(NCc3ccc(Oc4cnc(C(F)(F)F)nc4)nc3)nc3c2N1CCC3 [157 (W262)]	24 nM	31 nM	–	18 nM	> 10000 nM
CN1c2nc(NCc3ccc(Oc4cnc(C(F)(F)F)nc4)nc3)nc3c2N(CCC3)C(=O)[C@@H]1c1cccc(F)c1 [174 (W314)]	–	66 nM	–	37 nM	> 10000 nM
[2H]C([2H])([2H])OC[C@@]1(C)C(=O)N2CCCc3nc(NCc4ccc(Oc5ccc(C(F)(F)F)nc5)nc4)nc(c32)N1C([2H])([2H])[2H] [182 (W395)]	7 nM	10.9 nM	24 nM	–	> 10000 nM
CN1c2nc(NCc3ccc(Oc4ccc(C(F)(F)F)nc4)nc3)nc3c2N(CCC3)C(=O)[C@@H]1C(F)(F)F [185 (W310)]	69 nM	63 nM	–	99 nM	> 10000 nM
CN1c2nc(NCc3ccc(Oc4ccc(C(F)(F)F)nc4)nc3)nc3c2N(CCC3)C(=O)C1CC(F)(F)F (stereo not shown) [189 (W306)]	17 nM	8.5 nM	3.5 nM	–	> 10000 nM
CN1c2nc(NCc3ccc(Oc4cnc(C(F)(F)F)nc4)nc3)nc3c2N(CCC3)C(=O)C1CC(F)(F)F (stereo not shown) [198 (W307)]	17 nM	8.8 nM	2.3 nM	–	> 10000 nM
COc1nc(C(F)(F)F)ccc1Oc1ccc(CNc2nc3c4c(n2)N(C)[C@@H](C)C(=O)N4CCC3)cn1 [231 (W417)]	< 0.5 nM	1.6 nM	< 0.5 nM	–	> 10000 nM
C[C@H](O)[C@@]1(C)C(=O)N2CCCc3nc(NCc4ccc(Oc5cnc(C(F)(F)F)nc5)nc4)nc(c32)N1C [240 (W428)]	16.6 nM	11.1 nM	–	–	> 10000 nM
[2H]C([2H])([2H])n1nc(C(F)(F)F)cc1Oc1ccc(CNc2nc3c4c(n2)N(C)[C@@H](CO)C(=O)N4CCC3)cn1 [241 (W431)]	9.3 nM	11.5 nM	–	–	> 10000 nM

Now from value to compound, other results behind:

IC50 [1]	IC50 [4]	IC50 [5]	Compound	IC50 [2]	IC50 [3]
–	31 nM	–	C[C@H]1C(=O)N2CCCc3nc(NCc4ccc(OC5CCC(F)(F)CC5)nc4)nc(c32)N1C [98 (W188)]	31 nM	> 10000 nM
31 nM	48 nM	–	CO[C@@H](C)[C@H]1C(=O)N2CCCc3nc(NCc4ccc(Oc5ccc(C(F)(F)F)nc5)nc4)nc(c32)N1C [113 (W247), (S)-5-((S)-1-methoxyethyl)-4-methyl-2-(((6-((6-(trifluoromethyl)pyridin-3-yl)oxo)pyridin-3-yl)methyl)amino)-4,5,9,10-tetrahydro-6H,8H-pyrido[3,2,1-de]pteridin-6-one]	64 nM	> 10000 nM
–	152 nM	–	O=C1[C@@H]2COCCN2c2nc(NCc3ccc(Oc4ccc(C(F)(F)F)nc4)nc3)nc3c2N1CCC3 [124 (W278), (S)-2-(((6-((6-(trifluoromethyl)pyridin-3-yl)oxo)pyridin-3-yl)methyl)amino)-5,6,8a,9, 11,12-Hexahydro-4H,8H-[1,4]oxazino[3,4-h]pyrido[3,2,1-de]pteridin-8-one]	51 nM	> 10000 nM
25 nM	48 nM	–	C[C@H]1C(=O)N2CCCc3nc(NCc4ccc(Cc5ccc(C(F)(F)F)cc5)nc4)nc(c32)N1C [138 (W271), (S)-4,5-dimethyl-2-(((6-(4-(trifluoromethyl)benzyl)pyridin-3-yl)methyl)amino)-4,5,9, 10-tetrahydro-6H,8H-pyrido[3,2,1-de]pteridin-6-one]	40 nM	> 10000 nM
31 nM	27 nM	–	CC(C)[C@H]1C(=O)N2CCCc3nc(NCc4ccc(Cn5ccc(C(F)(F)F)n5)nc4)nc(c32)N1C [148 (W250)]	13 nM	> 10000 nM
2 nM	4.6 nM	–	CC(C)[C@H]1C(=O)N2CCCc3nc(NCc4ccc(Oc5cnc(C(F)(F)F)nc5)nc4)nc(c32)N1C [159 (W259)]	< 0.5 nM	> 10000 nM
–	42 nM	50.8 nM	C[C@H]1C(=O)N2CCCc3nc(NCc4cnn(Cc5cc(C(F)(F)F)nn5C5CC5)c4)nc(c32)N1C [230 (W415)]	–	> 10000 nM
–	51 nM	66.2 nM	CN1c2nc(NCc3ccc(Oc4cc(C(F)(F)F)nn4C4CCOC4)nc3)nc3c2N(CCC3)C(=O)[C@]1(C)CO (stereo partly shown) [234 (W420)]	–	> 10000 nM
